Experimental findings from ChEMBL document CHEMBL2086254, “Synthesis and identification of novel indolo[2,3-a]pyrimido[5,4-c]carbazoles as a new class of anti-cancer agents” (Eur J Med Chem, 2012) are described below.

pIC50: −log10 of the molar value. Bounds are passed on as bounds.

In the assay the target is Cyclin-dependent kinase 2 (Homo sapiens, UniProt P24941). Description: Inhibition of CDK2.

For `Cn1c2ccccc2c2c3c(c4c5ccccc5n(CC(O)CO)c4c21)C(=O)NC3=O` (stereo unspecified), the pIC50 was greater than 7.22.

What is called pIC50 is the negative decadic logarithm of the IC50, by convention in mol/L.
